Reference: publication PMC8150775, “Repositioning Azelnidipine as a Dual Inhibitor Targeting CD47/SIRPα and TIGIT/PVR Pathways for Cancer Immuno-Therapy” (Biomolecules, 2021)

Tests used:
MC38 tumors = assay: MC38 tumor model, alone or combined with radiotherapy, with ex vivo analysis; type: in vivo, C57BL/6 mice
Procedure: BABL/c mice were subcutaneously (s.c.) injected with 2 × 10^5 CT26 cells on the right back, and C57BL/6 mice were injected with 1 × 10^6 MC38 cells. One week later, tumor-bearing mice were randomized into indicated groups, and intraperitoneal (i.p.) injected with azelnidipine or normal saline every day for two weeks. Tumor volumes were measured every other day by the (a) length, (b) width, and (c) height and calculated as volume (V) = a × b × c/2. For the combinational model of azelnidipine and radiotherapy (RT), MC38 tumor-bearing mice received irradiation (IR) when the tumors reached 80–100 mm^3. The mice received one dose of 20 Gy irradiation at the tumor local site, and followed by the treatment of azelnidipine.
Tumor-bearing mice were sacrificed at the end of the treatment. The tumors were dissected and digested into single cell with an enzyme cocktail of 100 U/mL collagenase IV; and Dnase I. The infiltration of CD8^+ T cells at the tumor site was detected by flow cytometry by staining of anti-mouse CD45, anti-mouse CD3, anti-mouse CD8α or isotype control. The MDSCs at the tumor site were analyzed by staining of anti-mouse CD45, anti-mouse CD11b, anti-mouse Ly6C, and anti-mouse Ly6G. […] The frequency of IFN-γ secreting CD8^+ T cells were counted according to the fluorescence minus one (FMO) control with the isotype control of IFN-γ antibody. […]

THP-1 macrophages = system: THP-1 macrophages; set-up: method as in PMID 29398679, PMID 20606305; conditions: cited from earlier work
mouse SIRPα = biological target: T1, mouse SIRPα (Mus musculus, UniProt P97797); assay: Microscale thermophoresis (MST) binding
T1 construct: His; purchased Sino Biological 50956-M08H
T1 sequence (P97797 32-513): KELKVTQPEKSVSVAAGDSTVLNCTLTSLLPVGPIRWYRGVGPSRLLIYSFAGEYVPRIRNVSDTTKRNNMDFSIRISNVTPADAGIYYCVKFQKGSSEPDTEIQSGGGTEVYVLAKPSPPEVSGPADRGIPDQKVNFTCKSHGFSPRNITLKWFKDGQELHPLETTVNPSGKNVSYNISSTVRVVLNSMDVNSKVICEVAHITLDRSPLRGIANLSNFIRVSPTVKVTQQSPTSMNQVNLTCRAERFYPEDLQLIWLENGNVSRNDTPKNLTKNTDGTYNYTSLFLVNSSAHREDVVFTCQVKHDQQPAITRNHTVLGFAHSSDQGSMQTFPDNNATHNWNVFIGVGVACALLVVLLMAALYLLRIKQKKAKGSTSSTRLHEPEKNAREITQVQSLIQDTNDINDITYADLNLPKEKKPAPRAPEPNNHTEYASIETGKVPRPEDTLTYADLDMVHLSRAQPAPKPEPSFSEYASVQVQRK
Procedure: (§1) MST assays were performed to test the affinity of SMI-F11 (azelnidipine) to the indicated protein using the Monolith NT.115 system, as previously reported. His tagged human SIRPα (SIA-H5225, ACRO Biosystem, Beijing, China), mouse SIRPα (50956-M08H, Sino Biological, Beijing, China), human PVR (CD5-H5223, ACRO Biosystem, Beijing, China), and mouse PVR (50259-M08H, Sino Biological, Beijing, China) were used. The protein was labeled with Red-NHS647 dye (NanoTemper Technologies GmhH, Munich, Germany) according to the manufacturer’s instructions. Azelnidipine was 2-fold serially diluted from 200 μM and subsequently tested. Red-NHS647 dye-labeled protein was incubated with the diluted azelnidipine, with equal volume for 5 min at room temperature; the mixture was then loaded onto standard capillaries for detection. The KD values were calculated by the analysis software (MO. Affinity Analysis, version number 2.2.4, NanoTemper Technologies GmhH, Munich, Germany).

human SIRPα = biological target: T2, human SIRPα (Homo sapiens, UniProt P78324); assay: Microscale thermophoresis (MST) binding
T2 construct: His; purchased ACRO Biosystem SIA-H5225
T2 sequence (P78324 31-504): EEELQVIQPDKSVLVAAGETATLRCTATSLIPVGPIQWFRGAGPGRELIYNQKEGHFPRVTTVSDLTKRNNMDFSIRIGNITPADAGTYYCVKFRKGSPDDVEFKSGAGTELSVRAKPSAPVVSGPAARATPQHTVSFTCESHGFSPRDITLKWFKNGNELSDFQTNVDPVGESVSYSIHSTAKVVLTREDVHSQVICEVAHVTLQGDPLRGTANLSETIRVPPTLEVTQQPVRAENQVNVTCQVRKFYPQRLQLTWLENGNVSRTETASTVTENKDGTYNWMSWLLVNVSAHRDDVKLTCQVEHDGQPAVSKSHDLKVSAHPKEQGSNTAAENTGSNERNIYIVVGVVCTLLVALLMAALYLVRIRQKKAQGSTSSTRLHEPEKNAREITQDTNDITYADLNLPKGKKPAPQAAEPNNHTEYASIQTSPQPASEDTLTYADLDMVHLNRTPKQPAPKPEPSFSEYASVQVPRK
Procedure: as §1

mouse PVR = mouse PVR (Mus musculus, UniProt F6V4I7); assay: Microscale thermophoresis (MST) binding
Sequence of mouse PVR (F6V4I7 29-347): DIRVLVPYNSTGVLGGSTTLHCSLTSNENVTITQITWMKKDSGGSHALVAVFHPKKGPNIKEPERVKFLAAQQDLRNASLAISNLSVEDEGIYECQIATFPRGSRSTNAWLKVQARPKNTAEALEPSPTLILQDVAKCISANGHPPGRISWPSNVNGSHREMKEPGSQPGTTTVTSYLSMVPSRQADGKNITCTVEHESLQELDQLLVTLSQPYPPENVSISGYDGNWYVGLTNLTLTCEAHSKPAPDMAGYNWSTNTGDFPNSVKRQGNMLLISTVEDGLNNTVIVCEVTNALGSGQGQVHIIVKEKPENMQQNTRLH
Procedure: as §1

human PVR = biological target: T3, human PVR (Homo sapiens, UniProt P15151); assay: Microscale thermophoresis (MST) binding
T3 construct: His; purchased ACRO Biosystem CD5-H5223
Procedure: as §1

Kd (mouse SIRPα): 3.75 µM
Kd (human SIRPα): 5.37 µM
Kd (mouse PVR): 13.3 µM
Kd (human PVR): 6.48 µM
Structure (SMILES): CC1=C(C(=O)OC(C)C)C(c2cccc([N+](=O)[O-])c2)C(C(=O)OC2CN(C(c3ccccc3)c3ccccc3)C2)=C(N)N1 (stereo not shown) [Azelnidipine]
growth of MC38 tumors, combination with IR (MC38 tumors; 5 mg/kg i.p. each day combined with 20 Gy local IR): remarkably suppress tumor growth
growth of MC38 tumors (MC38 tumors; 2 and 5 mg/kg i.p. each day for 2 weeks, alone): significantly restrict
differentiation and activation of THP-1 macrophages (THP-1 macrophages): inhibit the differentiation and activation
